Patent publication US10874743B2, “IRAK degraders and uses thereof” (Kymera Therapeutics, Inc., priority 2017, dated 2020)

Molecular target: T1, IRAK4 (Homo sapiens, UniProt Q9NWZ3)
T1 sequence (Q9NWZ3 1-460): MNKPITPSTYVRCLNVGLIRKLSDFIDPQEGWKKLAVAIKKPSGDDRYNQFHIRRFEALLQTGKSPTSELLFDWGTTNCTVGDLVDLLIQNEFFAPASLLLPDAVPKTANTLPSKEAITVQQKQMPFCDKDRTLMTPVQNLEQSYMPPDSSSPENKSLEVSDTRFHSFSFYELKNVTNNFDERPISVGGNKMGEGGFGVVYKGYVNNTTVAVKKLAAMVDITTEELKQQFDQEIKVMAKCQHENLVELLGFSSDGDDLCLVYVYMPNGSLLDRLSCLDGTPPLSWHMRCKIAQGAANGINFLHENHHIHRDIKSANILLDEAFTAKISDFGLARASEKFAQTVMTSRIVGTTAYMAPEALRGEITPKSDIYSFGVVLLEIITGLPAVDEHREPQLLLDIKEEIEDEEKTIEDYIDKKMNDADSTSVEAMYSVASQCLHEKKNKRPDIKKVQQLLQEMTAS
Assay: OCI-LY-10 MSD assay for IRAK4 DC50
Assay type: cell-based
Set-up: endogenous in cells; host or cells: OCI-LY10
Details: OCI-LY10 cells, 4 hr incubation, concentration required to degrade 50% of protein
Procedure: A MSD assay was run to determine the concentration of compound required to degrade 50% of protein (DC50).
Day 1 • Compounds were reconstituted to 10 mM in stock solutions. The stock solutions were diluted to 5 mM and 45 μL of each dilution was transferred to a 384 pp-plate. A 3 fold, 8-point serial dilution was performed by transferring 15 μL of compound into 30 μL DMSO using Janus. • 20 nL of each compounds were added into each well of a 96-well plate (Corning3799). • OCI-Ly10 cells were seeded into the 96-well plate at 3.0*10e^5 cells/100 μL/well. • The cell plate was shaken at 720 rpm for 5 min and incubated for 4 hr. • The 100 μL of cells were transferred into the 96-PCR plate and spun down at high speed for 5 mins. • The supernatant was discarded and 100 μL of RIPA lysis buffer with proteinase inhibitors was added per well. The plate was then sealed and shaken at 600 rpm and 4° C. for about 20 min. • The plate was then spun down at high speed (about 3200 g) for 30 min and then frozen in a −80° C. fridge. • A bare MSD plate (L15XA-3) was coated with 2 μg/mL of capture antibody (mouse Anti-IRAK4 antibody [2H9], ab119942) in PBS to 40 μL/well and incubated overnight at 4° C.
Day 2 • The MSD coated plate was washed 3× (150 μL/well) with 1×TBST (CST #9997S). • The MSD plate was then blocked with 150 μL of blocking buffer [3% Blocker A (MSD, R93BA-4) in TBST]/well and shaken for 1 hr at R^† and 600 rpm. • The MSD plate was washed 3× (150 μL/well) with 1×TBST. The sample RIPA lysates were then added to the MSD plate (50 μL/well) and shaken for 1 hr at R^† and 600 rpm. • The MSD plate was washed 3× (150 μL/well) with 1×TBST and the primary detection antibody (Rabbit Anti-IRAK4 antibody [Y279], ab32511) was added to a final concentration of 1 μg/ml with 25 μL/well. The plate was then shaken for 1 hr at RT and 600 rpm. • The MSD plate was washed 3× (150 μL/well) with 1×TBST and the secondary detection antibody, SULFO-TAG anti-species antibody (Anti Rabbit Antibody (R32AB-5) MSD, R32AB-1) was added to a volume of 25 μL/well at a final concentration of 1 jag/ml. The plate was then shaken for 1 hr at RT and 600 rpm. • The MSD plate was then washed 3× (150 μL/well) with 1×TBST. • lx MSD reading buffer was then added (150 μL/well) and the plate was diluted with 4× water. (MSD, R92TC-2) • The MSD instrument was then read.
Data Analysis • The remaining activity was calculated following the formula below:
Calculate • The DC50 was calculated by fitting the Curve using Xlfit (v5.3.1.3), equation 201: Y=Bottom+(Top−Bottom)/(1+10^((Log IC50−X)*HillSlope))
OCI-LY-10 DC50 results. The letter codes for IRAK4 DC50 indicate the concentration of compound required to degrade 50% of protein: A (<0.05 μM), B (0.05-0.1 μM), C (0.1-0.5 μM), D (0.5-1.0 μM), and E (>1.0 μM).

DC50 [µM] | SMILES
0.1 to 0.5 | Cc1ncsc1-c1ccc(CNC(=O)[C@@H]2C[C@@H](O)CN2C(=O)[C@@H](NC(=O)COCCOCCOCCNCc2ccc(-n3cc(NC(=O)c4coc(-c5ccnc(NCC(F)(F)F)c5)n4)c(C(N)=O)n3)cc2)C(C)(C)C)cc1 [I-414]
> 1 | Cc1ncsc1-c1ccc(CNC(=O)[C@@H]2C[C@@H](O)CN2C(=O)[C@@H](NCCOCCOCCOCCNCc2ccc(-n3cc(NC(=O)c4coc(-c5ccnc(NCC(F)(F)F)c5)n4)c(C(N)=O)n3)cc2)C(C)(C)C)cc1 [I-415]
> 1 | COCC(=O)N[C@H](C(=O)N1Cc2cc(OCCOCCOCCOCCOCCOCCNCc3ccc(-n4cc(NC(=O)c5coc(-c6ccnc(NCC7CC7)c6)n5)c(C(F)F)n4)cc3)ccc2CC1C(=O)N[C@@H]1CCCc2ccccc21)C(C)(C)C (some centres unmarked) [I-416]
> 1 | COCC(=O)N[C@H](C(=O)N1Cc2cc(OCCOCCOCCOCCNCc3ccc(-n4cc(NC(=O)c5coc(-c6ccnc(NCC7CC7)c6)n5)c(C(F)F)n4)cc3)ccc2CC1C(=O)N[C@@H]1CCCc2ccccc21)C(C)(C)C (some centres unmarked) [I-417]
0.1 to 0.5 | Cn1c(=O)n(C2CCC(=O)NC2=O)c2cccc(CCCOCC(C)(C)COCCCNCc3ccc(-n4cc(NC(=O)c5coc(-c6ccnc(NCC7CC7)c6)n5)c(C(F)F)n4)cc3)c21 (centres unmarked) [I-419]
> 1 | Cn1cc(NC(=O)c2coc(-c3ccnc(NCC(F)(F)F)c3)n2)c(CNCCCOCC(C)(C)COCCCc2cccc3c2n(C)c(=O)n3C2CCC(=O)NC2=O)n1 (centres unmarked) [I-420]
0.1 to 0.5 | Cn1c(=O)n(C2CCC(=O)NC2=O)c2ccc(CCCOCC(C)(C)COCCCNCc3ccc(-n4cc(NC(=O)c5coc(-c6ccnc(NCC7CC7)c6)n5)c(C(F)F)n4)cc3)cc21 (centres unmarked) [I-421]
> 1 | Cn1c(=O)n(C2CCC(=O)NC2=O)c2cccc(CCCOCCOCCNCc3ccc(-n4cc(NC(=O)c5cocn5)c(C(N)=O)n4)cc3)c21 (centres unmarked) [I-422]
> 1 | Cn1c(=O)n(C2CCC(=O)NC2=O)c2cccc(CCCNCc3ccc(-n4cc(NC(=O)c5coc(-c6ccnc(NCC7CC7)c6)n5)c(C(F)F)n4)cc3)c21 (centres unmarked) [I-423]
< 0.05 | O=C1CCC(N2C(=O)c3cccc(NCCOCCOCCNC(=O)c4ccc(-n5cc(NC(=O)c6coc(-c7ccnc(NCC(F)(F)F)c7)n6)c(N6CCN(CCO)C6=O)n5)cc4)c3C2=O)C(=O)N1 (centres unmarked) [I-428]
> 1 | CC1(C)CCN(c2nn(-c3ccc(C(=O)NCCOCCOCCNc4cccc5c4C(=O)N(C4CCC(=O)NC4=O)C5=O)cc3)cc2NC(=O)c2coc(-c3ccnc(NCC(F)(F)F)c3)n2)C1=O (centres unmarked) [I-429, N-[3-(3,3-dimethyl-2-oxo-pyrrolidin-1-yl)-1-[4-[2-[2-[2-[[2-(2,6-dioxo-3-piperidyl)-1,3-dioxo-isoindolin-4-yl]amino]ethoxy]ethoxy]ethyl]carbamoyl]phenyl]pyrazol-4-yl-2-[2-(2,2,2-trifluoroethylamino)-4-pyridyl]oxazole-4-carboxamide]
> 1 | Cn1cc(NC(=O)c2coc(-c3cccnc3NCCOCCOCCOCCNc3cccc4c3C(=O)N(C3CCC(=O)NC3=O)C4=O)n2)c(C(F)F)n1 (centres unmarked) [I-432, N-[3-(difluoromethyl)-1-methyl-pyrazol-4-yl]-2-[2-[2-[2-[2-[2-[[2-(2,6-dioxo-3-piperidyl)-1,3-dioxo-isoindolin-4-yl]amino]ethoxy]ethoxy]ethoxy]ethylamino]-3-pyridyl]oxazole-4-carboxamide]
> 1 | Cn1c(=O)n(C2CCC(=O)NC2=O)c2ccc(CCCOCCCN3CCN(C4CCC(Nc5ncnn6ccc(C7CCOCC7)c56)CC4)CC3)cc21 (centres unmarked) [I-436, 3-[3-Methyl-2-oxo-5-[3-[3-[4-[4-[(5-tetrahydropyran-4-ylpyrrolo[2,1-f][1,2,4]triazin-4-yl)amino]cyclohexyl]piperazin-1-yl]propoxy]propyl]benzimidazol-1-yl]piperidine-2,6-dione]
> 1 | Cn1c(=O)n(C2CCC(=O)NC2=O)c2ccc(CCCOCCC(=O)N3CCN(C4CCC(Nc5ncnn6ccc(C7CCOCC7)c56)CC4)CC3)cc21 (centres unmarked) [I-437, 3-[3-Methyl-2-oxo-5-[3-[3-oxo-3-[4-[4-[(5-tetrahydropyran-4-ylpyrrolo[2,1-f][1,2,4]triazin-4-yl)amino]cyclohexyl]piperazin-1-yl]propoxy]propyl]benzimidazol-1-yl]piperidine-2,6-dione]
> 1 | Cn1c(=O)n(C2CCC(=O)NC2=O)c2ccc(CCCCCCC(=O)N3CCN(C4CCC(Nc5ncnn6ccc(C7CCOCC7)c56)CC4)CC3)cc21 (centres unmarked) [I-438]
> 1 | Cn1c(=O)n(C2CCC(=O)NC2=O)c2cccc(CCCOCCOCCOCCOCC(=O)N[C@H]3CC[C@H](Nc4ncnc5[nH]cc(C6CCOCC6)c45)CC3)c21 (some centres unmarked) [I-440, 2-[2-[2-[2-[3-[1-(2,6-Dioxo-3-piperidyl)-3-methyl-2-oxo-benzimidazol-4-yl]propoxy]ethoxy]ethoxy]ethoxy]-N-[4-[(5-tetrahydropyran-4-yl-7H-pyrrolo[2,3-d]pyrimidin-4-yl)amino]cyclohexyl]acetamide]
> 1 | Cn1c(=O)n(C2CCC(=O)NC2=O)c2cccc(CCCOCCOCCOCCOCCN[C@H]3CC[C@H](Nc4ncnc5[nH]cc(C6CCOCC6)c45)CC3)c21 (some centres unmarked) [I-442, 3-[3-Methyl-2-oxo-4-[3-[2-[2-[2-[2-[[4-[(5-tetrahydropyran-4-yl-7H-pyrrolo[2,3-d]pyrimidin-4-yl)amino]cyclohexyl]amino]ethoxy]ethoxy]ethoxy]ethoxy]propyl]benzimidazol-1-yl]piperidine-2,6-dione]
0.05 to 0.1 | Cn1c(=O)n(C2CCC(=O)NC2=O)c2cccc(CCCOCCOCCOCCOCC(=O)N3CCN(C4CCC(Nc5ncnc6[nH]cc(C7CCOCC7)c56)CC4)CC3)c21 (centres unmarked) [I-444, 3-[3-Methyl-2-oxo-4-[3-[2-[2-[2-[2-oxo-2-[4-[4-[(5-tetrahydropyran-4-yl-7H-pyrrolo[2,3-d]pyrimidin-4-yl)amino]cyclohexyl]piperazin-1-yl]ethoxy]ethoxy]ethoxy]ethoxy]propyl]benzimidazol-1-yl]piperidine-2,6-dione]

SMILES | DC50 [µM]
Cn1c(=O)n(C2CCC(=O)NC2=O)c2ccc(CCCCOCCCCNCc3ccc(-n4cc(NC(=O)c5cnn6ccc(N7CCNCC7)nc56)c(C(F)F)n4)cc3)cc21 (centres unmarked) [I-441, N-[3-(difluoromethyl)-1-[4-[[4-[4-[1-(2,6-dioxo-3-piperidyl)-3-methyl-2-oxo-benzimidazol-5-yl]butoxy]butylamino]methyl]phenyl]pyrazol-4-yl]-5-piperazin-1-yl-pyrazolo[1,5-a]pyrimidine-3-carboxamide] | > 1
Cn1c(=O)n(C2CCC(=O)NC2=O)c2ccc(CCCCOCCCCNC(=O)c3ccc(-n4cc(NC(=O)c5cnn6ccc(N7CCNCC7)nc56)c(C(F)F)n4)cc3)cc21 (centres unmarked) [I-445, N-[3-(difluoromethyl)-1-[4-[4-[4-[1-(2,6-dioxo-3-piperidyl)-3-methyl-2-oxo-benzimidazol-5-yl]butoxylbutyl]carbamoyl]phenyl]pyrazol-4-yl]-5-piperazin-1-yl-pyrazolo[1,5-a]pyrimidine-3-carboxamide] | 0.05 to 0.1
